Each structure is given as a SMILES string.

For orientation: melting point means the temperature, or range, at which the solid turns liquid. Regarding `CC(=O)OCn1cc(C#N)c(-c2ccccc2Cl)c1`, the melting point fell in the range of 91 to 95 °C.

Regarding `COc1ccc(N2CCN(c3c(C)c(C)c4c(c3C)C(O)(c3ccc(-c5ccccc5)cc3)C(C)(C)O4)CC2)cc1` (stereo unspecified), the melting point was in the range of 182 to 184 °C.

On to `O=C(OCC1OC(OC(=O)C2CCCCC2)C(OC(=O)C2CCCCC2)C(OC(=O)C2CCCCC2)C1OC(=O)C1CCCCC1)C1CCCCC1` (stereo unspecified), for which the melting point is 174 to 176 °C.

In turn, `CC(C)c1ccc(C(=O)C2=C(O)C(=O)N(c3ccc(Sc4ccc([N+](=O)[O-])cc4)nn3)C2c2ccc(OC(F)(F)F)cc2)cc1` (stereo unspecified) yielded a melting point of 194 to 209 °C.

The compound `O=C(O)COc1ccc(SCc2cc(-c3ccc(C(F)(F)F)cc3)on2)c2c1CCCO2` returned a melting point of 112 to 113 °C.

On to `COC(=O)c1ccc(CN2CCN(C(=O)c3ccc(Cl)cc3)CC2)cc1`, for which the melting point fell in the range of 134 to 135 °C.

In turn, `CC(Oc1ccc(F)cc1Cl)c1ccnc2ncnn12` (stereo unspecified) yielded a melting point of 89 to 91 °C.

`COc1ccc(C(=O)Nc2ccccc2)cc1NCc1ccc(C)cc1` returned a melting point of 184 to 186 °C.

As to `CCOC(=O)C(O)=CC=C(SC)C(=O)c1ccc(O)c(O)c1`, the melting point was found to be 156 °C.

Take `CCOC(=O)C1=C(N)C(OCC)=NS1(=O)=O`: the melting point was in the range of 163 to 165 °C.

Consider `c1ccc(-n2c3ccccc3c3cc(-n4ccnc4-c4nccn4-c4ccc5c(c4)c4ccccc4n5-c4ccccn4)ccc32)nc1`, for which the melting point lay in the range of 215 to 227 °C.

In the case of `CCCCc1ncc(CC(Cc2ccccc2)C(=O)O)n1Cc1ccccc1Cl` (stereo unspecified), the melting point fell in the range of 118 to 120 °C.

The compound `COc1ccc(-c2ccc(C)nc2-c2ccc(O)cc2)cc1` showed a melting point of 190 °C.

`CCCCC(=O)Nc1ccc(N)cc1`: the melting point fell in the range of 81 to 83 °C.

The compound `COc1ccc([C@H](Sc2cc(Oc3ccc4c(c3)OCO4)ccc2N)[C@@H](O)C(=O)O)cc1` yielded a melting point of 112 to 113 °C.

With `Cc1ncsc1C(=O)CCCSc1nnnn1C`, the melting point lay within 64 to 65 °C.

In the case of `COC(=O)[C@@H]1CCC(c2cccc(O)c2)N1C(=O)CNC(=O)OCc1ccccc1` (stereo partly specified), the melting point worked out at 173 °C.

Compound `CN(C)C=NS(=O)(=O)c1c(C(F)(F)F)nc2ccc(Cl)nn12` came in with a melting point of 204 to 205 °C.

On to `Cc1onc(-c2ccc(Cl)c(Cl)c2)c1-c1ccc(S(N)(=O)=O)cc1`, for which the melting point fell in the range of 66 to 71 °C.

With `CC(C)c1ccc(Cl)nn1`, the melting point was 32 to 33 °C.

The compound `Cc1ncncc1C(=O)Nc1ccc(-n2nc(C(F)(F)F)cc2C2CC2)nc1` gave a melting point of 159 to 160 °C.

For `Brc1ccc2c(c1)C1(OCCCO1)C1=NCCCN12`, the melting point was 145 to 149 °C.

With `COC(=O)C1=C(C)NC(C)=C(C(=O)CS(=O)(=O)N(C)C)C1c1cccc([N+](=O)[O-])c1` (stereo unspecified), the melting point fell in the range of 154 to 157 °C.

For `CCCN1CCn2c(=S)[nH]c3cccc(c32)C1C` (stereo unspecified), the melting point was found to be 179 °C.

Take `CC(C)N(CCO)C(=O)c1noc2ccccc12`: the melting point is 92 to 94 °C.

`COCc1cc(-n2cc(-c3ccc(-c4ccco4)cc3)c(C(F)(F)F)n2)ccc1S(C)(=O)=O` displayed a melting point of 142 to 143 °C.

Take `CC1(C)CC(S(=O)(=O)Cc2cc3c(cc2Cl)OCO3)=NO1`: the melting point amounted to 170 °C.

`O=S(=O)(NC1CCCCC1)c1ccc(Nc2nccc(N3CCCc4c(O)cccc43)n2)cc1` returned a melting point of 236 to 238 °C.

`Cc1oc(-c2ccccc2)nc1COc1ccc(Cn2cc(C(=O)O)c(-c3ccccc3)n2)cc1` came in with a melting point of 165 to 166 °C.

The compound `CN[C@@H](CC(C)C)C(=O)O` yielded a melting point of 101 to 103 °C.

`O=C(Oc1c(Br)c(Br)c(Br)c(Br)c1Br)c1ccccc1CCl` came in with a melting point of 201 to 205 °C.

Consider `CN(c1cccc(C(F)(F)F)c1)c1nc2c(-c3cccc(C(=O)O)c3)cccc2n1C`, for which the melting point lay within 211 to 212 °C.

`O=C(Nc1nnc(C2CC2)o1)C1c2ccccc2Oc2ccccc21` showed a melting point of 246 to 248 °C.

The compound `O=C(Nc1ccccn1)c1c(O)ccc2cc(-c3cccc(O)c3)ccc12` registered a melting point of 140 °C.

`CC1CCCC(C)N1Cc1ccc2cc(NC(=O)C3(Cl)C=CC(c4ccccc4Cl)=CC3)ccc2n1` (stereo unspecified): the melting point was in the range of 162 to 164 °C.

Compound `COc1c(C(C)(C)C)cc(P(c2cc(C(C)(C)C)c(OC)c(C(C)(C)C)c2)c2ccccc2Br)cc1C(C)(C)C` came in with a melting point of 142 to 143 °C.

Regarding `C=C1C(=O)N(CC(=O)O)C(=O)N1Cc1cccc([N+](=O)[O-])c1`, the melting point was 169 to 171 °C.

`CCN(O)C(=O)Cc1ccc2c(c1)C(=O)c1ccccc1CO2` gave a melting point of 119 to 121 °C.

In turn, `N#Cc1nn(-c2c(Cl)cc(C(F)(F)F)cc2Cl)c(N)c1-c1ccc(Br)s1` yielded a melting point of 214 °C.

In turn, `CCOC(=O)C(C)c1ccc(NC2OC(=O)c3ccccc32)cc1` (stereo unspecified) gave a melting point of 136 to 139 °C.

Turning to `CC1(C)N=C(c2ccccc2)CC1c1ccncc1` (stereo unspecified), the melting point was 90 to 92 °C.

`COc1ccc2ccc(O)c(C=O)c2c1` registered a melting point of 126 °C.

On to `Cc1cc(OCc2ccccc2)cc(NC(=O)OC(C)C)c1C(=O)O`, for which the melting point was 137 to 139 °C.

In turn, `Cc1cc(C)nc(COCP(=O)(O)O)c1` showed a melting point of 153 to 156 °C.

Compound `CC#CCn1c(Oc2cc(C)cc(C)c2)c(C(C)C)c(=O)[nH]c1=O` returned a melting point of 158 to 160 °C.

For `Cn1ccc2cc(NC(=O)c3cc4ccccc4n3Cc3cccc(C(F)(F)F)c3)ccc21`, the melting point was in the range of 189 to 190 °C.

`O=C1c2ccccc2C(=O)c2c1c(Oc1ccc(CCCO)cc1)c1ccccc1c2Oc1ccc(CCCO)cc1` yielded a melting point of 218 to 220 °C.

For the compound `CCOC(=O)Cc1nc(-c2ccc(OC)cc2)oc1-c1ccco1`, the melting point was in the range of 64 to 66 °C.

Compound `COc1cc(C(C)=O)ccc1SCCCCl` registered a melting point of 53 to 55 °C.

As for `O=P(O)(O)Oc1cccc(-c2cn3c(n2)sc2ccccc23)c1`, the melting point lay in the range of 205 to 208 °C.

Compound `COc1ccc(C#N)c(C(=O)Cl)c1` came in with a melting point of 192 to 194 °C.

With `CC(=O)c1cccc(N2CCN(CCCCOc3ccc4c(n3)NC(=O)CC4)CC2)c1Cl`, the melting point is 138 to 139 °C.

`Cc1ccc(S(=O)(=O)On2nnc3ccc(Cl)cc32)cc1` returned a melting point of 94 to 96 °C.

The compound `Cc1cccc(C)c1CNc1cc(C(=O)NCCO)cc2c1nc(C)n2C` showed a melting point of 259 to 260 °C.

The compound `CC1CCc2c(N3CCC(NC(=O)OC(C)(C)C)C3)c(F)cc3c(=O)n(N)c(=O)n1c23` (stereo unspecified) had a melting point of 98 to 100 °C.

Consider `CC(C)N1CCC(CNc2ccc(NS(C)(=O)=O)cc2C(=O)Nc2ccc(Cl)cn2)CC1`, for which the melting point fell in the range of 204 to 205 °C.

Regarding `Cc1cc(Nc2ccnc(Nc3ccc(S(=O)(=O)N(C)C4CCN(CCS(C)(=O)=O)CC4)cc3)n2)ccc1F`, the melting point worked out at 114 °C.

`CC(SC1COC(c2ccc(C(=O)Nc3ccc(C#N)c(C#N)c3)cc2)OC1)C(O)(Cn1cncn1)c1ccc(F)cc1F` (stereo unspecified): the melting point was 182 °C.

In turn, `Cc1cccc(NC(=O)NCC(=O)N(c2ccccc2)C(C)C(=O)N(C)c2ccccc2)c1` (racemic) had a melting point of 214 °C.

As for `COC(=O)[C@@H]1O[C@@H](c2ccccc2)N(NS(=O)(=O)c2c3ccccc3cc3ccccc23)[C@H]1c1ccccc1`, the melting point lay in the range of 71 to 73 °C.

Take `Cc1nc2ccccc2nc1C(=O)OCCO`: the melting point was in the range of 146 to 148 °C.

`O=[N+]([O-])c1ccc(Oc2ccc(-n3cncn3)cc2)cc1`: the melting point lay in the range of 131 to 132 °C.

`O=C(O)CON(Cc1ccc(F)cc1)C(=O)C=C(O)C(=O)O` returned a melting point of 135 to 138 °C.

Turning to `CCCCCCCCC#CCC#CCC#CCS(=O)(=O)CC(=O)O`, the melting point was 132 °C.

`O=C1Nc2ccc(Cl)cc2C2(c3ccccc3)OCCCN12` (stereo unspecified) showed a melting point of 202 to 204 °C.

In turn, `Cn1c(CC#N)ccc1C(=O)c1ccc(Cl)cc1` displayed a melting point of 120 to 124 °C.

For the compound `CN1CCN(C(=O)c2ccc(-c3[nH]nc4c3C(=O)c3c(NC(=O)NN5CCOCC5)cccc3-4)s2)CC1`, the melting point was in the range of 186 to 187 °C.

For `O=CNNc1ccnc2c(NC(=O)c3c(Cl)cccc3Cl)cccc12`, the melting point was 261 to 263 °C.

For `CCCN1CCc2c(cccc2NC(C)=O)C1`, the melting point is 123 °C.

On to `COC(=O)c1ccc2c(c1)Sc1cc3c(cc1CC2)CCC3`, for which the melting point fell in the range of 110 to 111 °C.

`Cn1ncc(C(=O)N2CCOCC2)c1C(=O)Nc1ccn2nc(Br)nc2c1` had a melting point of 198 to 214 °C.

The compound `O=C1CN2Cc3cc(OCCCCCCO)ccc3N=C2N1` gave a melting point of 236 to 237 °C.

In the case of `CC(C)(C)OC(=O)CC[C@@H](NC(=O)OCc1ccccc1)c1nnn[nH]1`, the melting point is 99 to 101 °C.

Compound `CCC(CNC(=O)c1cc(C#N)c(Cl)cc1OC)NC(C)C` (stereo unspecified) showed a melting point of 103 to 105 °C.

For `CS(=O)(=O)Nc1ccc(C(=O)O)c(Cl)c1`, the melting point lay within 256 to 258 °C.

On to `O=C1N=C(N2CCCCC2)SC1=Cc1cccc(-c2ccc(O)c(C34CC5CC(CC(C5)C3)C4)c2)c1`, for which the melting point fell in the range of 311 to 312 °C.

`CCOC(=O)N1CCCOc2cc(N)ccc21` showed a melting point of 140 to 143 °C.

In turn, `O=C(Nc1nc2ccccc2s1)c1cn(-c2ccccc2)c2ccccc2c1=O` gave a melting point of 295 to 297 °C.

The compound `COc1ccc(-c2cc(=O)cc(N3CCOCC3)s2)cc1` had a melting point of 199 to 200 °C.

Turning to `CCCCc1ccc(-c2ccc(CCc3ccc(Cl)cc3)cc2)cc1`, the melting point amounted to 129 °C.

The compound `COc1ccc(CONCc2ccc(OC)cc2OC)cc1` showed a melting point of 52 to 55 °C.

In turn, `Cc1cc(-c2cc(C(F)F)n3ncc(-c4ccncc4)c3n2)ccc1C(F)(F)F` came in with a melting point of 236 °C.

Regarding `CSc1c2c3c(cccc3n1C)C1C=C(C)CN(C)C1C2` (stereo unspecified), the melting point fell in the range of 115 to 116 °C.

In turn, `CN(C)C1(c2ccccc2)CC=C(c2c[nH]c3ccccc23)CC1` (stereo unspecified) gave a melting point of 164 to 172 °C.

In turn, `CCC(=O)NCCC1CCc2ccn3nccc3c21` (stereo unspecified) returned a melting point of 72 to 73 °C.

The compound `O=C(c1ccc(OCc2ccccc2)cc1)c1ccc(OCc2ccccc2)cc1` registered a melting point of 188 to 190 °C.
